# Test results taken from patent US20250188032A1, “NITROGEN-CONTAINING HETEROCYCLIC COMPOUNDS AND USES THEREOF” (BNH RESEARCH CO., LTD., priority 2022, published 2025).
# Where “and” joins values, the source holds several entries; their conditions need not be identical. Identical values can stand only once.
# Tested on: 293T cells
# Experiment: Cytotoxicity test (CCK-8 cell viability) in 293T cells
# Format: cell-based, human
# Details: 10 uM, 24 hours co-incubation, 293T cell line, % of control
# Protocol: Human undifferentiated neuroblastoma cell line SH-SY5Y and human embryonic kidney cell line (HEK)-293T were purchased from Korean Cell Line Bank (Korea) and Takara (Japan), respectively. Cells were grown in HyClone Minimal Essential Medium (MEM) and Dulbecco's Modified Eagle Medium (DMEM), respectively, supplemented with 10% (v/v) fetal bovine serum (FBS), penicillin (100 U/mL), and streptomycin ([…]). Cells were maintained in a humidified atmosphere of 95% air and 5% CO2 at 37° C. Cells were passaged 10 times at maximum. Cells were dissociated using 0.05% trypsin-EDTA solution and the cells were seeded in new culture dishes for maintenance.
# To examine the cytotoxicity of compounds described herein in human cell lines, SH-SY5Y and 293T cells were used. Approximately 8,000 cells (for 293T) and 15,000 cells (for SH-SY5Y) were plated per well of a 96-well plate (SPL Life Sciences Co., Ltd., Pocheon, Korea). After incubating at 37° C. for 24 hours in a humidified atmosphere containing 5% CO2, the culture medium was replaced by a series of concentrations of test compounds diluted in the corresponding culture medium. The time of co-incubation was 24 hours and six replicates were made for each measurement. Finally, 10 μL of CCK-8 reagent (Dojindo Laboratories, Rockville, MD) was added to each well, and after incubation at 37° C. for 3 minutes, the OD at 450 nm was measured using a multifunction microplate reader (Tecan Infinite M200 Pro). These measurements were compared to that of a control and expressed as a percentage of the control to calculate cell viability. The IC50 value was calculated using SPSS software. To do this, the absorbance of the blank wells with only growth medium is subtracted from the values or the wells with cells. The readout value of background (vehicle) was set as a 100% viability, and then the percent viability for each test solution was calculated.
# Cell viability (%)=[(As-Ab)/(Ac-Ab)]×100
# The data was presented as the mean value and standard error of the mean (S.E.M.). Statistical analysis was performed with the one-way ANOVA with Tukey's post hoc test (GraphPad Prism 5 software package, version 5.02, GraphPad Software Inc. USA). Significance was accepted at p<0.05.
row,SMILES,Cell viability test results (CCK) 10 uM
1,"C[C@H]1CCCCN1C(=O)Cc1ccccc1 [BnH12061, (S)-1-(2-methylpiperidin-1-yl)-2-phenylethan-1-one]",95%<
2,"COc1ccc(CC(=O)N2C[C@@H](C(=O)O)CC[C@H]2C)cc1 [BnH12063, (3S,6R)-1-(2-(4-methoxyphenyl)acetyl)-6-methylpiperidine-3-carboxylic acid]",95%<
3,"C[C@H]1CC[C@@H](C(=O)O)CN1C(=O)c1ccccc1 [BnH12065, (3R,6S)-1-benzoyl-6-methylpiperidine-3-carboxylic acid]",95%<
4,"C[C@H]1CC[C@@H](C(=O)O)CN1C(=O)Cc1ccc([N+](=O)[O-])cc1 [BnH12069, (3R,6S)-6-methyl-1-(2-(4-nitrophenyl)acetyl)piperidine-3-carboxylic acid]",95%< and 80%<
5,"C[C@H]1CC[C@@H](C(=O)O)CN1C(=O)Cc1ccc(N)cc1 [BnH12070, (3R,6S)-1-(2-(4-aminophenyl)acetyl)-6-methylpiperidine-3-carboxylic acid]",99%<
6,"C[C@H]1CC[C@@H](C(=O)O)CN1C(=O)Cc1cccc([N+](=O)[O-])c1 [BnH12073, (3R,6S)-6-methyl-1-(2-(3-nitrophenyl)acetyl)piperidine-3-carboxylic acid]",85%<
7,"C[C@H]1CC[C@@H](C(=O)O)CN1C(=O)Cc1cccc(N)c1 [BnH12074, (3R,6S)-1(2-(3-aminophenyl)acetyl)-6-methylpiperidine-3-carboxylic acid]",85%<
8,"C[C@H]1CC[C@@H](C(=O)O)CN1C(=O)Cc1ccc(O)cc1 [BnH12079, (3R,6S)-1-(2-(4-hydroxyphenyl)acetyl)-6-methylpiperidine-3-carboxylic acid]",99%<
9,"CC(C)C1CCC(C(=O)O)CN1C(=O)Cc1ccc(F)cc1Cl (centres unmarked) [BnH12096, 1-(2-(2-chloro-4-fluorophenyl)acetyl)-6-isopropylpiperidine-3-carboxylic acid]",70%<

# Same assay, conditions: 100 uM, 24 hours co-incubation, 293T cell line, % of control
row,SMILES,Cell viability test results (CCK) 100 uM
1,"C[C@H]1CCCCN1C(=O)Cc1ccccc1 [BnH12061, (S)-1-(2-methylpiperidin-1-yl)-2-phenylethan-1-one]",95%<
2,"COc1ccc(CC(=O)N2C[C@@H](C(=O)O)CC[C@H]2C)cc1 [BnH12063, (3S,6R)-1-(2-(4-methoxyphenyl)acetyl)-6-methylpiperidine-3-carboxylic acid]",95%<
3,"C[C@H]1CC[C@@H](C(=O)O)CN1C(=O)c1ccccc1 [BnH12065, (3R,6S)-1-benzoyl-6-methylpiperidine-3-carboxylic acid]",95%<
4,"C[C@H]1CC[C@@H](C(=O)O)CN1C(=O)Cc1ccc([N+](=O)[O-])cc1 [BnH12069, (3R,6S)-6-methyl-1-(2-(4-nitrophenyl)acetyl)piperidine-3-carboxylic acid]",95%< and 80%<
5,"C[C@H]1CC[C@@H](C(=O)O)CN1C(=O)Cc1ccc(N)cc1 [BnH12070, (3R,6S)-1-(2-(4-aminophenyl)acetyl)-6-methylpiperidine-3-carboxylic acid]",90%<
6,"C[C@H]1CC[C@@H](C(=O)O)CN1C(=O)Cc1cccc([N+](=O)[O-])c1 [BnH12073, (3R,6S)-6-methyl-1-(2-(3-nitrophenyl)acetyl)piperidine-3-carboxylic acid]",85%<
7,"C[C@H]1CC[C@@H](C(=O)O)CN1C(=O)Cc1cccc(N)c1 [BnH12074, (3R,6S)-1(2-(3-aminophenyl)acetyl)-6-methylpiperidine-3-carboxylic acid]",80%<
8,"C[C@H]1CC[C@@H](C(=O)O)CN1C(=O)Cc1ccc(O)cc1 [BnH12079, (3R,6S)-1-(2-(4-hydroxyphenyl)acetyl)-6-methylpiperidine-3-carboxylic acid]",90%<
9,"CC(C)C1CCC(C(=O)O)CN1C(=O)Cc1ccc(F)cc1Cl (centres unmarked) [BnH12096, 1-(2-(2-chloro-4-fluorophenyl)acetyl)-6-isopropylpiperidine-3-carboxylic acid]",65%<

# Tested on: GluN2B
# Experiment: Western blot of GluN2B protein in cultured fetal cortical cells
# Format: cell-based, mice
# Details: comment on Table 6
# Protocol: The amount of GluN2B reacted with the compound of the present disclosure was measured using Western blot. The fetal cerebral cortex was extracted from mice at 17 days of gestation, dissociated into single cells, cultured for 13 days, and treated with BnH drugs for 24 hours. The drug-treated cells were subjected to protein lysate preparation using RIPA protein lysis buffer containing protease and phosphatase inhibitors. The protein concentration was determined using a BCA protein assay kit (Pierce Biotechnology) using bovine serum albumin as a standard. Equal amounts of protein (20 μg per lane) were separated by electrophoresis on SDS-polyacrylamide gels at 90 V for 2 hours, then transferred from the SDS-polyacrylamide gel to PVDF membrane at 100 V for 1 hour. Then, primary reaction with GluN2B antibody (ab65783, Abcam) was performed at 4° C. for 1 day, washed three times at 10-minutes intervals with 1×PBT, and secondary reaction was performed with anti-mouse antibody (sc-2357, Santa Cruz) for 1 hour, followed by washing three times at 10-minutes intervals with 1×PBT. Western blotting was performed as described above to confirm GluN2B protein expression. Subsequently, each blot was re-probed using anti-β-actin antibody (sc-47778, Santa Cruz). Housekeeping protein β-actin was detected as a normalization control.
# The increase and decrease of BnH12 series were confirmed by setting the vehicle to 1 (N for each group was 3 or more).
# Using the experimental procedure described in Example 3, it was determined whether various BnH12 series compounds increase GluN2B expression, and the results are shown in Table 6. These in vitro experimental results are expressed as relative values to the group (vehicle) that was not treated with the compound, with the effect of the group set to 1.
row,SMILES,Effect on GluN2B expression compared to the vehicle
1,"C[C@H]1CCCCN1C(=O)Cc1ccccc1 [BnH12061, (S)-1-(2-methylpiperidin-1-yl)-2-phenylethan-1-one]",excellent effects
2,"COc1ccc(CC(=O)N2C[C@@H](C(=O)O)CC[C@H]2C)cc1 [BnH12063, (3S,6R)-1-(2-(4-methoxyphenyl)acetyl)-6-methylpiperidine-3-carboxylic acid]",excellent effects
3,"C[C@H]1CC[C@@H](C(=O)O)CN1C(=O)Cc1ccc([N+](=O)[O-])cc1 [BnH12069, (3R,6S)-6-methyl-1-(2-(4-nitrophenyl)acetyl)piperidine-3-carboxylic acid]",excellent effects
4,"C[C@H]1CC[C@@H](C(=O)O)CN1C(=O)Cc1cccc([N+](=O)[O-])c1 [BnH12073, (3R,6S)-6-methyl-1-(2-(3-nitrophenyl)acetyl)piperidine-3-carboxylic acid]",excellent effects
5,"C[C@H]1CC[C@@H](C(=O)O)CN1C(=O)Cc1cccc(N)c1 [BnH12074, (3R,6S)-1(2-(3-aminophenyl)acetyl)-6-methylpiperidine-3-carboxylic acid]",excellent effects
6,"CC(C)C1CCC(C(=O)O)CN1C(=O)Cc1ccc(F)cc1Cl (centres unmarked) [BnH12096, 1-(2-(2-chloro-4-fluorophenyl)acetyl)-6-isopropylpiperidine-3-carboxylic acid]",excellent effects

# Same assay, conditions: relative value, vehicle set to 1; treated for 24 hours; N 3 or more
row,SMILES,"GluN2B expression, Western blot results, Mean"
1,"C[C@H]1CC[C@@H](C(=O)O)CN1CCc1ccc(F)cc1Cl [BnH12010, (3R,6S)-1-(2-chloro-4-fluorophenethyl)-6-methylpiperidine-3-carboxylic acid]",1.074
2,"C[C@H]1CCCCN1C(=O)Cc1ccccc1 [BnH12061, (S)-1-(2-methylpiperidin-1-yl)-2-phenylethan-1-one]",1.683
3,"COc1ccc(CC(=O)N2C[C@@H](C(=O)O)CC[C@H]2C)cc1 [BnH12063, (3S,6R)-1-(2-(4-methoxyphenyl)acetyl)-6-methylpiperidine-3-carboxylic acid]",1.652
4,"C[C@H]1CC[C@@H](C(=O)O)CN1C(=O)c1ccccc1 [BnH12065, (3R,6S)-1-benzoyl-6-methylpiperidine-3-carboxylic acid]",1.326
5,"C[C@@H]1CC[C@H](C(=O)[O-])CN1C(=O)Cc1cccnc1.[Na+] [BnH12068, Sodium (3S,6R)-6-methyl-1-(2-(pyridin-3-yl)acetyl)piperidine-3-carboxylate]",1.286
6,"C[C@H]1CC[C@@H](C(=O)O)CN1C(=O)Cc1ccc([N+](=O)[O-])cc1 [BnH12069, (3R,6S)-6-methyl-1-(2-(4-nitrophenyl)acetyl)piperidine-3-carboxylic acid]",1.993
7,"C[C@H]1CC[C@@H](C(=O)O)CN1C(=O)Cc1ccc(N)cc1 [BnH12070, (3R,6S)-1-(2-(4-aminophenyl)acetyl)-6-methylpiperidine-3-carboxylic acid]",1.302
8,"C[C@H]1CC[C@@H](C(=O)O)CN1C(=O)Cc1cccc([N+](=O)[O-])c1 [BnH12073, (3R,6S)-6-methyl-1-(2-(3-nitrophenyl)acetyl)piperidine-3-carboxylic acid]",2.013
9,"C[C@H]1CC[C@@H](C(=O)O)CN1C(=O)Cc1cccc(N)c1 [BnH12074, (3R,6S)-1(2-(3-aminophenyl)acetyl)-6-methylpiperidine-3-carboxylic acid]",2.146
10,"C[C@H]1CC[C@@H](C(=O)O)CN1C(=O)Cc1ccc(O)cc1 [BnH12079, (3R,6S)-1-(2-(4-hydroxyphenyl)acetyl)-6-methylpiperidine-3-carboxylic acid]",1.062
11,"CC(C)C1CCC(C(=O)O)CN1C(=O)Cc1ccc(F)cc1Cl (centres unmarked) [BnH12096, 1-(2-(2-chloro-4-fluorophenyl)acetyl)-6-isopropylpiperidine-3-carboxylic acid]",2.848
